Results on 25 molecules are retold here after PubChem BioAssay (NCI).

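In this assay, cells in 96-well plates receive the compound at five concentrations for 48 hours. Endpoints are linearly interpolated between the surrounding concentrations. GI50 marks 50% less growth. Definition used: TGI = concentration required for complete inhibition of growth.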

Assay in all cases: NCI anticancer screen, dose series, 48 h
Experiment [1] concerns A549 NSCLC.
The subject of experiment [2] is CAKI-1 renal.
Experiment [3] deals with HOP-62 NSCLC.
Experiment [4] has as its system HT29 colon.
For experiment [5], the system named is MOLT-4 leukemia.
Experiment [6] has as its system OVCAR-4 ovarian.
For experiment [7], the system named is SK-OV-3 ovarian.
The subject of experiment [8] is SNB-75 CNS.

Take `CCN(CC)CCOc1ccc(C(=C2CCCCC2)c2ccc(OCCN(CC)CC)cc2)cc1`: the TGI in experiment [1] came out at 3.16 µM; in experiment [2], 3.7 µM; in experiment [3] it was 3.27 µM; in experiment [4], 2.32 µM; in experiment [5] it was 2.59 µM; in experiment [6] it was 4.77 µM. In addition, the values for the TGI in experiment [7] and in experiment [8] were 3.52 µM and 2.94 µM, respectively.
Take `ClC[Si]12OCCN(CCO1)CCO2`: the TGI in experiment [1], in experiment [2], in experiment [4], in experiment [5], in experiment [7] and in experiment [8] was over 100 µM throughout.
For `COc1ccc(C(=O)O)c(Cc2ccc3ccccc3c2)c1`, the TGI in experiment [1], in experiment [2], in experiment [3], in experiment [4], in experiment [5] and in experiment [6] was over 100 µM throughout. The TGI in experiment [7] and in experiment [8] was over 100 µM in each case.
Turning to `Cc1cccc(NC(=O)CC#N)c1Cl`, the TGI in experiment [1], in experiment [2], in experiment [4], in experiment [5], in experiment [7] and in experiment [8] was over 100 µM each time.
`COC(=O)NN1C(C)=C(C(=O)OC)C2(CCOC2=O)C1(C)O` (stereo unspecified): the TGI in experiment [1], in experiment [2], in experiment [3], in experiment [4], in experiment [5] and in experiment [6] was over 100 µM each time. Further, the TGI in experiment [7] was over 100 µM.
As to `CC1=C(c2cc(C(=O)Nc3nccs3)nc(NC#N)n2)Sc2ccccc2N1`, the TGI in experiment [1], in experiment [2], in experiment [3], in experiment [4], in experiment [5] and in experiment [6] was over 100 µM each time. The molecule also yielded a TGI in experiment [8] of over 100 µM.
Turning to `c1ccc(C2N3CCCCC3[C@@H]3c4[nH]c5ccccc5c4CCN23)cc1` (stereo partly specified), the TGI in experiment [1] was over 100 µM; in experiment [2] it was over 100 µM; in experiment [3], over 100 µM; in experiment [4] it was 33.5 µM; in experiment [5] it was over 100 µM; in experiment [6], 75.6 µM. In addition, the TGI in experiment [7] and in experiment [8] was over 100 µM each time.
Regarding `CC1(C)OC(=O)C(=C2CC(c3ccccc3)c3ccccc32)C(=O)O1` (stereo unspecified), the TGI in experiment [1], in experiment [2], in experiment [3], in experiment [4], in experiment [5] and in experiment [6] was over 100 µM each time. Further, the TGI in experiment [7] and in experiment [8] was over 100 µM throughout.
For `O=C([O-])c1ccccc1Nc1ccccc1[O-].[Ni+3].[OH3+].[OH3+].[OH3+]`, the GI50 in experiment [1], in experiment [2], in experiment [3], in experiment [4], in experiment [5] and in experiment [6] was over 100 µM each time. In addition, the GI50 in experiment [7] is over 100 µM. For the same molecule, the TGI in experiment [1], in experiment [2], in experiment [3], in experiment [4], in experiment [5] and in experiment [6] was over 100 µM throughout. The TGI in experiment [7] is over 100 µM.
On to `CN(C)/C(N)=N/C(N)=S`, for which the TGI in experiment [1], in experiment [2], in experiment [3], in experiment [4], in experiment [5] and in experiment [6] was over 100 µM in each case. Further, the TGI in experiment [7] and in experiment [8] was over 100 µM in each case.
`COc1ccc(/C(C)=N/NC(N)=S)c(OC)c1`: the TGI in experiment [1], in experiment [2], in experiment [3], in experiment [4], in experiment [5] and in experiment [7] was over 100 µM each time. This molecule gave a TGI in experiment [8] of over 100 µM.
With `CCC/C(=N\NC(=O)c1cc2ccccc2cc1O)C(CC)C(=O)CCC(=O)N(Cc1ccccc1)Cc1ccccc1` (stereo unspecified), the TGI in experiment [1], in experiment [2], in experiment [3], in experiment [4], in experiment [5] and in experiment [6] was over 100 µM each time. For the same molecule, the TGI in experiment [7] and in experiment [8] was over 100 µM throughout.
`BrC12c3ccccc3Sc3ccccc3C1(Br)c1ccccc12` (stereo unspecified): the TGI was over 100 µM in experiment [1]; 72.9 µM in experiment [2]; 42.9 µM in experiment [3]; over 100 µM in experiment [4]; 35.8 µM in experiment [5]; over 100 µM in experiment [6]. For the same molecule, the TGI in experiment [7] was over 100 µM; in experiment [8], 95.8 µM.
In the case of `COc1ccc(C#CCC(OC2OC(CO)C(O)C(O)C2O)C(O)c2ccc(OC)c(OC)c2)cc1OC` (stereo unspecified), the TGI in experiment [1], in experiment [2], in experiment [3], in experiment [4], in experiment [5] and in experiment [6] was over 100 µM in each case. Besides, the TGI in experiment [7] and in experiment [8] was over 100 µM each time.
With `CC(=O)OCC1OC(Sc2ccccn2)C=CC1OC(C)=O` (stereo unspecified), the TGI in experiment [1], in experiment [3], in experiment [4], in experiment [5], in experiment [6] and in experiment [7] was over 100 µM throughout. In experiment [8], this molecule displayed a TGI of over 100 µM.
As to `CC(C)CC(=O)NS(=O)(=O)c1ccccc1`, the TGI in experiment [1], in experiment [2], in experiment [3], in experiment [4], in experiment [5] and in experiment [6] was over 100 µM in each case. The TGI in experiment [7] and in experiment [8] was over 100 µM throughout.
On to `CCSc1nc2n(c(=S)n1)CCN2C`, for which the TGI in experiment [1] turned out to be 61.3 µM; in experiment [2], 55.4 µM; in experiment [3], 68.8 µM; in experiment [4] it was 37.2 µM; in experiment [5] it was 39.1 µM; in experiment [6] it was 44.5 µM. Further, the TGI was found to be 50.2 µM in experiment [7] and 30.8 µM in experiment [8].
With `O=c1/c(=C/c2ccc3c(c2)OCO3)sc2nnc(-c3ccco3)n12`, the TGI in experiment [1], in experiment [2], in experiment [3], in experiment [5], in experiment [6] and in experiment [7] was over 100 µM throughout. This molecule gave a TGI in experiment [8] of 71.2 µM.
Regarding `CN(C)/C=N/c1nc2ncn(CCOC(=O)c3ccccc3)c2c(=O)[nH]1`, the TGI in experiment [1], in experiment [2], in experiment [3], in experiment [4], in experiment [6] and in experiment [7] was over 100 µM in each case. Further, the TGI in experiment [8] is over 100 µM.
For `O=C(c1ccc2c3c(ccc(C(=O)C(F)(F)F)c13)CC2)C(F)(F)F`, the TGI in experiment [1], in experiment [2], in experiment [3], in experiment [4], in experiment [5] and in experiment [6] was over 100 µM in each case. For the same molecule, the TGI in experiment [7] and in experiment [8] was over 100 µM in each case.
Consider `Oc1cc2c(cc1O)-c1[nH]ncc1CC2`, for which the TGI in experiment [1] was over 100 µM; in experiment [2], over 100 µM; in experiment [3], over 100 µM; in experiment [4], over 100 µM; in experiment [5], 88.8 µM; in experiment [7], over 100 µM. The TGI in experiment [8] was 70.5 µM.
`CCC(/C(=N\Nc1c(Cl)cc(Cl)cc1Cl)c1ccccc1)n1ccnc1C` (stereo unspecified): the TGI in experiment [1] was determined as 38.1 µM; in experiment [2], 25.8 µM; in experiment [4] it was 21.4 µM; in experiment [5] it was 37.1 µM; in experiment [6] it was 30 µM; in experiment [7], 32.3 µM. The molecule further returned a TGI in experiment [8] of 29.5 µM.
As to `COC(=O)C(Cc1nc2ccccc2[nH]c1=O)C(=O)C(=O)Nc1ccc(OC)cc1[N+](=O)[O-]` (stereo unspecified), the TGI in experiment [1], in experiment [2], in experiment [3], in experiment [4], in experiment [5] and in experiment [6] was over 100 µM throughout. The molecule further registered a TGI in experiment [7] of over 100 µM.
For the molecule `O=C(O)C1OC(Oc2cc(O)c3c(=O)cc(-c4ccc(O)cc4)oc3c2)C(O)C(O)C1O` (stereo unspecified), the TGI in experiment [1], in experiment [2], in experiment [3], in experiment [4], in experiment [6] and in experiment [8] was over 100 µM throughout.
As to `CC1=C(C(=O)Nc2ccccc2C)C(c2ccc(C3C(C(=O)Nc4ccccc4C)=CNC=C3C(=O)Nc3ccccc3C)cc2)C(C(=O)Nc2ccccc2C)=C(C)N1`, the TGI in experiment [1] was over 100 µM; in experiment [2], 45.7 µM; in experiment [3], 48.7 µM; in experiment [4] it was 29.3 µM; in experiment [5], over 40.3 µM; in experiment [6], 22 µM. In addition, the figures for the TGI in experiment [7] and in experiment [8] were over 58.2 µM and 54.8 µM, respectively.
